Measurements as given in PMC4156518 (Cell metabolism, 2014).

What was measured:
[1] = molecular target: T1, UCP2 (murine, residues 14-309) (Mus musculus, UniProt P70406); assay: NMR titration, chemical shift perturbation; assay type: binding
T1 sequence (P70406 14-309): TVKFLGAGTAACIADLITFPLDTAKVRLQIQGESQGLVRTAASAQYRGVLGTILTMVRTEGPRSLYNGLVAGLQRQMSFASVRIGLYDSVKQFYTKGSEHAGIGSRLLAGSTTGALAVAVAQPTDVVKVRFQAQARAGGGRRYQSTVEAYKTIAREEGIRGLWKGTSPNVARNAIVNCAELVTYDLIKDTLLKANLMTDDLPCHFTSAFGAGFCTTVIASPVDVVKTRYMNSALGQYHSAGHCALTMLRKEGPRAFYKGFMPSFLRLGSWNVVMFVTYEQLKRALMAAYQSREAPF

[2] = molecular target: T1, UCP2 (murine, residues 14-309); assay: proteoliposome ASO− flipping assay; assay type: biochemical; details: read-out: % inhibition at 100 μM

SMILES: CCCCCCCCCCCCCCCC(=O)O [C16-FA]
- Kd [1]: 600 ± 200 µM

SMILES: Nc1nc2c(ncn2[C@@H]2O[C@H](COP(=O)(O)OP(=O)(O)O)[C@@H](O)[C@H]2O)c(=O)[nH]1 [GDP]
- inhibition at 100 µM [2]: ~95%
